Counter-ions that a name gives are not always drawn.

The source of these data is patent US6710060B2, “4-hydroxypiperidine derivatives having antiarrhythmic activity” (Mochida Pharmaceutical Co., Ltd., priority 1999, dated 2004).

As for `CCCCOc1ccc(N(C)CCC2(O)CCN(Cc3ccc(N(C)C)cc3)CC2)cc1` [Example 24, 4-[2-[N-(4-n-butoxyphenyl)-N-methylamino]ethyl]-1-[4-(dimethylamino)phenylmethyl]piperidin-4-ol], the melting point (usually the temperature of the solid-liquid transition) was in the range of 71.3 to 73 °C.
Compound `CC(C)Oc1ccc(N(C)CCC2(O)CCN(Cc3ccc(C#N)cc3)CC2)cc1` (as salt: hydrochloride) [Example 226, 1-(4-cyanophenylmethyl)-4-[2-[N-methyl-N-(4-isopropoxyphenyl)amino]ethyl]piperidin-4-ol dihydrochloride] yielded a melting point of 220.8 to 222.2 °C.
In turn, `COc1ccc(CN2CCC(O)(CCN(C)c3ccc(OC(C)C)cc3)CC2)cc1` [Example 76, 1-(4-methoxyphenylmethyl)-4-[2-[N-methyl-N-(4-isopropoxyphenyl)amino]ethyl]piperidin-4-ol] yielded a melting point of 50.8 to 52.4 °C.
Take `CC(C)COc1ccc(N(C)CCC2(O)CCN(Cc3ccccc3)CC2)cc1` [Example 16, 1-Benzyl-4-[2-[N-(4-isobutoxyphenyl)-N-methylamino]-ethyl]piperidin-4-ol]: the melting point is 50.6 to 52.5 °C.
Under `CC(C)Oc1ccc(NCCC2(O)CCN(Cc3ccc(C(F)(F)F)cc3)CC2)cc1` [Example 125, 4-[2-[N-(4-isopropoxyphenyl)amino]ethyl]-1-[4-(trifluoromethyl)phenylmethyl]piperidin-4-ol] stands 152.3 to 153.1 °C.
To `CCCCOc1ccc(N(C)CC(O)C2(O)CCN(CCc3ccc(F)cc3)CC2)cc1` (stereo not shown) (as salt: hydrochloride) [Example 196, 4-[2-[N-(4-n-butoxyphenyl)-N-methylamino]-1-hydroxyethyl]-1-[2-(4-fluorophenyl)ethyl]piperidin-4-ol dihydrochloride] belongs 191.2 to 198.7 °C.
`CC(C)Oc1ccc(N(C)CCC2(O)CCN(Cc3ccc(Br)cc3F)CC2)cc1` [Example 93, 1-(4-bromo-2-fluorophenylmethyl)-4-[2-[N-methyl-N-(4-isopropoxyphenyl)amino]ethyl]piperidin-4-ol] had a melting point of 99.8 to 100.9 °C.
As to `CCCCOc1ccc(N(C)CCC2(O)CCN(Cc3ccc(Cl)cc3)CC2)cc1` [Example 20, 4-[2-[N-(4-n-butoxyphenyl)-N-methylamino]ethyl]-1-(4-chlorophenylmethyl)piperidin-4-ol], the melting point was in the range of 67.7 to 68.3 °C.
To `CC(C)Oc1ccc(N(C)CCC2(O)CCN(Cc3ccc(Br)cc3F)CC2)cc1` (as salt: hydrochloride) [Example 240, 1-(4-bromo-2-fluorophenylmethyl)-4-[2-[N-methyl-N-(4-isopropoxyphenyl)amino]ethyl]piperidin-4-ol dihydrochloride] belongs 228.3 to 229.1 °C; to `CC(C)Oc1ccc(N(C)CCC2(O)CCN(Cc3ccc(F)cc3)CC2)cc1` [Example 78, 1-(4-fluorophenylmethyl)-4-[2-[N-methyl-N-(4-isopropoxyphenyl)amino]ethyl]piperidin-4-ol], 69.2 to 70 °C.
Under `CC(C)Oc1ccc(N(C)CCC2(O)CCN(Cc3cccc(F)c3)CC2)cc1` [Example 94, 1-(3-fluorophenylmethyl)-4-[2-[N-methyl-N-(4-isopropoxyphenyl)amino]ethyl]piperidin-4-ol] stands 52.5 to 54.6 °C; under `CC(C)Oc1ccc(N(C)CCC2(O)CCN(Cc3ccc(F)cc3F)CC2)cc1` [Example 87, 1-(2,4-difluorophenylmethyl)-4-[2-[N-methyl-N-(4-isopropoxyphenyl)amino]ethyl]piperidin-4-ol], 77.6 to 77.9 °C.
Under `CC(C)Oc1ccc(N(C)CCC2(O)CCN(Cc3ccc([N+](=O)[O-])cc3)CC2)cc1` [Example 84, 4-[2-[N-methyl-N-(4-isopropoxyphenyl)amino]ethyl]-1-(4-nitrophenylmethyl)piperidin-4-ol] stands 62.5 to 63.1 °C.
Compound `CCCCOc1ccc(N(C)CCC2(O)CCN(CC(O)c3ccc(F)cc3)CC2)cc1` (stereo not shown) [Example 55, 4-[2-[N-(4-n-butoxyphenyl)-N-methylamino]ethyl]-1-[2-(4-fluorophenyl)-2-hydroxyethyl]piperidin-4-ol] gave a melting point of 92.8 to 94.5 °C.
`COC(=O)c1cccc(CN2CCC(O)(CCN(C)c3ccc(OC(C)C)cc3)CC2)c1` [Example 111, 1-[3-(methoxycarbonyl)phenylmethyl]-4-[2-[N-methyl-N-(4-isopropoxyphenyl)amino]ethyl]piperidin-4-ol] gave a melting point of 53.8 to 54.7 °C.
As to `CCCCOc1ccc(N(CCC2(O)CCN(Cc3ccccc3)CC2)C(C)=O)cc1` [Example 56, 4-[2-[N-acetyl-N-(4-n-butoxyphenyl)amino]-ethyl]-1-benzylpiperidin-4-ol], the melting point was in the range of 89.7 to 90.6 °C.
To `CCCCOc1ccc(N(C)CCC2(O)CCN(Cc3ccc(F)c(F)c3)CC2)cc1` [Example 30, 4-[2-[N-(4-n-butoxyphenyl)-N-methylamino]ethyl]-1-(3,4-difluorophenylmethyl)piperidin-4-ol] belongs 49.8 to 50.5 °C; to `CCCCOc1ccc(N(C)CCC2(O)CCN(CCc3ccc(F)cc3F)CC2)cc1` (as salt: hydrochloride) [Example 183, 4-[2-[N-(4-n-butoxyphenyl)-N-methylamino]ethyl]-1-[2-(2,4-difluorophenyl)ethyl]piperidin-4-ol dihydrochloride], 209 °C (dec.).
Compound `CC(C)Oc1ccc(N(C)CCC2(O)CCN(Cc3ccc(C(F)(F)F)cc3)CC2)cc1` (as salt: hydrochloride) [Example 221, 4-[2-[N-methyl-N-(4-isopropoxyphenyl)amino]ethyl]-1-[4-(trifluoromethyl)phenylmethyl]piperidin-4-ol dihydrochloride] came in with a melting point of 241.2 to 242.6 °C.
Under `CCCCOc1ccc(N(C)CCC2(O)CCN(Cc3ccc(F)cc3)CC2)cc1` (as salt: hydrochloride) [Example 177, 4-[2-[N-(4-n-butoxyphenyl)-N-methylamino]ethyl]-1(4-fluorophenylmethyl)piperidin-4-ol dihydrochloride] stands 209 °C (dec.); under `CCCCOc1ccc(N(C)CCC2(O)CCN(Cc3ccc(C(F)(F)F)cc3)CC2)cc1` [Example 21, 4-[2-[N-(4-n-butoxyphenyl)-N-methylamino]ethyl]-1-[4-(trifluoromethyl)phenylmethyl]piperidin-4-ol], 77.4 to 78.2 °C.
In turn, `CC(C)Oc1ccc(NCCC2(O)CCN(C(c3ccccc3)c3ccccc3)CC2)cc1` [Example 136, 1-diphenylmethyl-4-[2-[N-(4-isopropoxyphenyl)-amino]ethyl]piperidin-4-ol] yielded a melting point of 170 to 171.2 °C.
For `CC(C)Oc1ccc(N(C)CCC2(O)CCN(Cc3ccc(F)c(C(F)(F)F)c3)CC2)cc1` [Example 88, 1-[4-fluoro-3-(trifluoromethyl)phenylmethyl]-4-[2-[N-methyl-N-(4-isopropoxyphenyl)amino]ethyl]piperidin-4-ol], the melting point lay within 58.8 to 62.8 °C.
To `CCCCOc1ccc(N(C)CCC2(O)CCN(Cc3ccc(C(=O)OC)cc3)CC2)cc1` [Example 23, 4-[2-[N-(4-n-butoxyphenyl)-N-methylamino]ethyl]-1-(4-methoxycarbonylphenylmethyl)piperidin-4-ol] belongs 82.5 to 82.8 °C; to `CC(C)Oc1ccc(N(C)CCC2(O)CCN(Cc3ccc(Br)cc3)CC2)cc1` [Example 73, 1-(4-bromophenylmethyl)-4-[2-[N-methyl-N-(4-isopropoxyphenyl)amino]ethyl]piperidin-4-ol], 104.3 to 105 °C; to `CC(C)Oc1ccc(N(C)CCC2(O)CCN(Cc3cccs3)CC2)cc1` (as salt: hydrochloride) [Example 254, 4-[2-[N-methyl-N-(4-isopropoxyphenyl)amino]ethyl]-1(2-thienylmethyl)piperidin-4-ol dihydrochloride], 216.5 to 217.5 °C.
In turn, `CC(C)Oc1ccc(N(C)CCC2(O)CCN(Cc3ccc(C(F)(F)F)cc3)CC2)cc1` [Example 74, 4-[2-[N-methyl-N-(4-isopropoxyphenyl)amino]ethyl]-1-[4-(trifluoromethyl)phenylmethyl]piperidin-4-ol] displayed a melting point of 109.9 to 110.6 °C.
To `CC(C)Oc1ccc(N(C)CCC2(O)CCN(Cc3ccc(C#N)cc3)CC2)cc1` [Example 79, 1-(4-cyanophenylmethyl)-4-[2-[N-methyl-N-(4-isopropoxyphenyl)amino]ethyl]piperidin-4-ol] belongs 108.1 to 109.5 °C; to `CCCCOc1ccc(N(C)CCC2(O)CCN(C3Cc4ccccc4C3)CC2)cc1` [Example 32, 4-[2-[N-(4-n-butoxyphenyl)-N-methylamino]ethyl]-1-(2,3-dihydro-1H-indene-2-yl)piperidin-4-ol], 94.4 to 94.6 °C; to `CC(C)Oc1ccc(N(C)CCC2(O)CCN(Cc3ccc4ccccc4c3)CC2)cc1` [Example 80, 4-[2-[N-methyl-N-(4-isopropoxyphenyl)amino]ethyl]-1-(2-naphthylmethyl)piperidin-4-ol], 76.2 to 76.8 °C.
To `CC(C)Oc1ccc(N(C)CCC2(O)CCN(Cc3ccc(OC(F)(F)F)cc3)CC2)cc1` (as salt: hydrochloride) [Example 236, 4-[2-[N-methyl-N-(4-isopropoxyphenyl)amino]ethyl]-1-(4-trifluoromethoxyphenylmethyl)piperidin-4-ol dihydrochloride] belongs 233.2 to 234.9 °C.
Take `CCCCOc1ccc(N(C)CCC2(O)CCN(Cc3cccc(F)c3)CC2)cc1` [Example 29, 4-[2-[N-(4-n-butoxyphenyl)-N-methylamino]ethyl]-1-(3-fluorophenylmethyl)piperidin-4-ol]: the melting point fell in the range of 46.7 to 47.2 °C.
`CCOc1ccc(N(C)CCC2(O)CCN(C(c3ccccc3)c3ccccc3)CC2)cc1` [Example 133, 1-diphenylmethyl-4-[2-[N-(4-ethoxyphenyl)-N-methylamino]ethyl]piperidin-4-ol] returned a melting point of 94.3 to 95.8 °C.
Under `CSc1ccc(CN2CCC(O)(CCN(C)c3ccc(OC(C)C)cc3)CC2)cc1` [Example 109, 4-[2-[N-methyl-N-(4-isopropoxyphenyl)amino]ethyl]-1-[4-(methylthio)phenylmethyl]piperidin-4-ol] stands 66.2 to 68 °C.
